Columns and labels:
5 YSY neuroblastoma [1] = experiment: Myoinositol metabolism (accumulation and incorporation) in neuroblastoma cells cultured in glucose; type: cell-based; conditions: glucose 30 mM, substance 10⁻⁵ M; for Myoinositol Incorporation: fraction linked to the membranes
Protocol: A diabetic neuropathy in vitro model has been carried out using neuroblastoma cells cultured in chronic hyperglucosemia conditions. This condition causes the typical diabetes mellitus dismetabolic effects as the polyols (sorbitol) accumulation, the myoinositol reduction and the reduction of the Na pump functionality. […] et al. - Alan R., Liss. […] In the groups from 2) to 4) glucose (30 mM) has been added to the culture renewing the culture medium and then adding glucose every 72 hours, during a three weeks period. In the group 3), at the same time of the glucose, one of the substances inhibiting proteic ADP-ribosilation reported in the table 1 (amount 10^-5 M) has been added. In the group 4), at the same time of the glucose one of the substances non inhibiting proteic ADP-ribosilation reported in the table 1 (dermatan sulphate and tolrestat) in amount 10^-5 M has been added. On the experimental groups above described also the myoinositol metabolism alteration has been studied which has been valued by the method described by Yorek et al., in "Diabetes", pag. […]

[2] = Body weight and glycemia control in alloxan-diabetic rats; type: in vivo; conditions: diabetic animals 8 weeks after the diabetes induction, 10 mg/kg daily; for Glycemia: caudal vein blood before sacrifice
Protocol: The effectiveness verification of the substances inhibiting proteic ADP-ribosilation in preventing the diabetes mellitus complications has been carried out in vivo on rats in diabetes mellitus models induced by alloxan.
(§1) The diabetes has been induced in the rats of the groups from 2) to 5) by a single subcutaneous injection of 100 mg/kg of alloxan dissolved in pH 4.5 0.1 M citrate-phosphate buffer solution.
Groups 1) and 2) have been injected with an equivalent volume of physiologic solution.
(§2) The pharmacological treatment started 7 days after the diabetes induction and prosecuted until the sacrifice with daily administration.
The blood samples have been withdrawn at the caudal vein level before the animals sacrifice.

[3] = tested on: substance P axonal transport; experiment: Substance P axonal transport in ligated sciatic nerve of alloxan-diabetic rats; type: in vivo; conditions: for anterograde and retrograde accumulation of substance P, in words: 10 mg/kg daily; for substance P content, NSc: contralateral non-ligated sciatic nerve; for substance P content, NSc / substance P content, D / substance P content, P2 / substance P content, P1: ± ES; for substance P content, D: distal segment; for substance P content, P1: proximal segment contiguous to ligature
Description: The effectiveness verification of the substances inhibiting proteic ADP-ribosilation in preventing the diabetes mellitus complications has been carried out in vivo on rats in diabetes mellitus models induced by alloxan. With this purpose, […] substance P axonal transport in the five following experimental groups, each consisting of N° 8 rats: • 1) control group; • 2) diabetic rats group; • 3) diabetic rats group treated with vitamin K1 (substance inhibiting the proteic ADP-ribosilation); • 4) diabetic rats group treated with arachidic acid (substance inhibiting the proteic ADP-ribosilation); • 5) diabetic rats group treated with dermatan sulphate (substance non inhibiting proteic ADP-ribosilation).
The Sprague Dawley strain rats used, 250 gr weight, male sex, were supplied by Charles River.
as §1
The pharmacological treatment of the groups 3) and 5) respectivelly with vitamin K1 and dermatansulphate, has been carried out by intraperitoneal administration of said substances dissolved in physiologic solution at 10 mg/kg dose. […] Groups 1) and 2) have been injected with an equivalent volume of physiologic solution.
as §2
To estimate the axonal transport of substance P the accumulation of the substance P in three segments of sciatic nerve two millimeters long was estimated 24 hours from the ligature of the same nerve.
The operations of the sciatic nerve ligature, of the tissues withdrawal from the same and of substance P extraction from the tissues for the radioimmunologic dosage, have been carried out by the following way.
The animals were anaesthetised by intraperitoneal administration of 35 mg/kg of pentobarbital dissolved in 0.9% physiologic solution. After wright thigh epilation and cutis section the sciatic nerve was exposed at half thigh level (at least 0.8 cm from the popliteal cavity where the nerve ramifies). The ligature has been made by sterile silk thread which has been twice knotted to about half of the exposed nerve portion.
The sacrifice has been accomplished after 8 weeks from the diabetes induction, after 24 hours from the ligature.
Immediately after the sacrifice, in the former operation seat, the removal of the whole sciatic nerve has been made and finally from this the three segments each about 2 mm long have been withdrawn: segment P1 (proximal contiguous to the ligature); segment P2 (immediately above P1) and segment D (distal contiguous to the ligature), as it is shown in fig. 1.
The withdrawn tissues have been placed in polypropylene test-tubes held in ice and containing a volume of acetic acid 1 N in 10:1 ratio with the tissue weight. Then the tissues homogenization has been done by a continuous speed variation homogenizer (Heavy Stirrer, mod. 12) and a polytetrafluoroethylene pestle perfectly adherent to the test-tube walls. After the homogenate aliquots required for the tissue proteins dosage have been withdrawn (0.1 ml) the test-tubes have been immerged in a boiling water bath for 8-10 minutes, for inactivating the peptidases eventually still present in the samples, and then left for about 30 minutes at 4 °C for completely cooling.
The […] obtained by centrifugation of the homogenate at 40.000 x g for 10 minutes, has been lyophilized and the dry residue has been reconstituted in distilled water, stirred by vortex and centrifuged at 40.000 x g for 10 minutes. From the samples so reconstituted the suitable aliquots required for the substance P radioimmunological dosage have been withdrawn. […]

transducin = experiment: In vitro ADP-ribosilation of retina membrane proteins G from treated diabetic rats (autoradiogram); type: in vivo; conditions: retina membrane fraction of diabetic rats treated at 50 mg/kg
Description: A further experimentation on the silybin effect on the ADP-ribosilation of retina proteins G has been carried out. The evaluation of said proteins ribosilability has been performed by the method described by Duman et al. in J. Neurochem. (1991). pages 2124-2132.
For said experimentation the retinas withdrawn from the rats of the groups 1a), 2a) and 3a) used for the experimentation on the substance P axonal transport, were used.
The retinas have been homogenized and subdivided in cellular fractions and the membrane fraction has been selected for the ADP-ribosilation reaction in vitro.
2 which represents the autoradiogram of an electrophoretic gel obtained from said membrane cellular fraction.
Column 1P derives from the retinas of the control group rats, column 2P derives from the retinas of the diabetic rats and column 3P derives from the retinas of the diabetic rats treated with silybin at a 50 mg/kg dose.

5 YSY neuroblastoma [4] = experiment: Neuritogenesis after retinoic acid in neuroblastoma cells cultured in chronic hyperglucosemia (in vitro diabetic neuropathy model); type: cell-based; conditions: substance 10⁻⁵ M; for Percentage of cells with neurits after retinoic acid addition: glucose 30 mM for three weeks
Protocol: A diabetic neuropathy in vitro model has been carried out using neuroblastoma cells cultured in chronic hyperglucosemia conditions. This condition causes the typical diabetes mellitus dismetabolic effects as the polyols (sorbitol) accumulation, the myoinositol reduction and the reduction of the Na pump functionality. […] A. Shahar et al. - Alan R., Liss.
In the groups from 2) to 4) glucose (30 mM) has been added to the culture renewing the culture medium and then adding glucose every 72 hours, during a three weeks period.
In the group 3), at the same time of the glucose, one of the substances inhibiting proteic ADP-ribosilation reported in the table 1 (amount 10⁻⁵ M) has been added.
In the group 4), at the same time of the glucose one of the substances non inhibiting proteic ADP-ribosilation reported in the table 1 (dermatan sulphate and tolrestat) in amount 10⁻⁵ M has been added.
Subsequently retinoic acid (5 x 10⁻⁶ M) has been added to the cultures 1) to 4) for causing the cells neuritogenesis which has been valued by the observation at the optic microscope considering as neurit the cytoplasmatic extension having a length corresponding at least to twice as the diameter of the cell.

[5] = 10 mg/kg daily (vitamin K1, dermatansulphate intraperitoneal; arachidic acid oral), 8 weeks after induction
[6] = 24 hours after ligature, 10 mg/kg daily (vitamin K1, dermatansulphate intraperitoneal; arachidic acid oral)
[7] = proximal segment above P1, 24 hours after ligature, 10 mg/kg daily (vitamin K1, dermatansulphate intraperitoneal; arachidic acid oral)
[8] = second experiment, oral 50 mg/kg/die

| Compound | Myoinositol Incorporation (5 YSY neuroblastoma [1]) | Myoinositol Accumulation (5 YSY neuroblastoma [1]) | also measured |
| --- | --- | --- | --- |
| O=C1NC(=O)c2cccc3cccc1c23 [1.8 Naphthalimide, 1.8-naphthalimide] | 0.91 n mol/µg of protein | 9.20 n mol/µg of protein | – |
| O=c1[nH]c2ccc([N+](=O)[O-])cc2c2ccccc12 [2-nitro-(6(5H)-phenanthridinone, 2-nitro-6(5H)-phenanthridinone] | 0.81 n mol/µg of protein | 8.51 n mol/µg of protein | – |
| Nc1ccc2c3c(cccc13)C(=O)NC2=O [4-amino-1.8-naphthalimide] | 0.78 n mol/µg of protein | 8.01 n mol/µg of protein | – |
| CC(=CCC1=C(C)C(=O)c2ccccc2C1=O)CCCC(C)CCCC(C)CCCC(C)C (stereo not drawn) [Vit K1, vitamin K1] | 0.98 n mol/µg of protein | 9.66 n mol/µg of protein | Body weight [2]: 244±12.6 gr.; Glycemia [2]: 438 ± 6.4 mg/dL; anterograde and retrograde accumulation of substance P, in words [3]: normalized; substance P content, NSc [3, 5]: 1.28±0.008 ng/mg of tissular protein; substance P content, D [3, 6]: 1.96±0.08 ng/mg of tissular protein; substance P content, P2 [3, 7]: 2.44±0.09 ng/mg of tissular protein; substance P content, P1 [3, 6]: 8.72±0.16 ng/mg of tissular protein |
| CC1=CC(=O)c2ccccc2C1=O [Vit K3, vitamin K3] | 0.85 n mol/µg of protein | 8.56 n mol/µg of protein | – |
| CCCCCCCCCCCCCCCCCCCC(=O)O [arachidic acid] | 0.92 n mol/µg of protein | 9.02 n mol/µg of protein | Body weight [2]: 239±12.6 gr.; Glycemia [2]: 471 ± 9.4 mg/dL; anterograde and retrograde accumulation of substance P, in words [3]: normalized; substance P content, NSc [3, 5]: 1.24±0.006 ng/mg of tissular protein; substance P content, D [3, 6]: 1.80±0.06 ng/mg of tissular protein; substance P content, P2 [3, 7]: 1.40±0.05 ng/mg of tissular protein; substance P content, P1 [3, 6]: 9.44±0.14 ng/mg of tissular protein |
| O=c1cc(-c2ccccc2)oc2ccccc12 [flavone] | 0.67 n mol/µg of protein | 6.54 n mol/µg of protein | – |
| CCCCC/C=C\C/C=C\CCCCCCCC(=O)O [linoleic acid (C18:2-cis-9.12), linoleic acid] | 0.88 n mol/µg of protein | 8.66 n mol/µg of protein | – |
| CC/C=C\C/C=C\C/C=C\CCCCCCCC(=O)O [linolenic acid (C18:3-cis-9.12.15), linolenic acid] | 0.81 n mol/µg of protein | 8.44 n mol/µg of protein | – |
| CCCCCCCCCCCCCC(=O)O [myristic acid] | 0.85 n mol/µg of protein | 8.91 n mol/µg of protein | – |
| CO[C@@H]1[C@@H](OC(N)=O)[C@@H](O)[C@H](Oc2ccc3c(O)c(NC(=O)c4ccc(O)c(CC=C(C)C)c4)c(=O)oc3c2C)OC1(C)C [novobiocin] | 0.60 n mol/µg of protein | 6.0 n mol/µg of protein | – |
| CCCCCCCCCCCCCCCC(=O)O [palmitic acid] | 0.89 n mol/µg of protein | 9.39 n mol/µg of protein | – |
| COc1cc(C2Oc3cc([C@H]4Oc5cc(O)cc(O)c5C(=O)[C@@H]4O)ccc3OC2CO)ccc1O (stereo partly drawn) [silybin] | – | – | transducin ribosilability, in words (transducin): maintained; substance P content, NSc [3, 8]: 2.26±0.040 ng/mg of tissular protein; substance P content, D [3, 8]: 4.05±0.071 ng/mg of tissular protein; substance P content, P2 ([3]; second experiment, proximal segment above P1, oral 50 mg/kg/die): 7.07±0.59 ng/mg of tissular protein; substance P content, P1 [3, 8]: 11.42±0.18 ng/mg of tissular protein |
| CCCCCCCCCCCCCCCCCC(=O)O [stearic acid] | 0.95 n mol/µg of protein | 9.89 n mol/µg of protein | – |
| COc1ccc2c(C(=S)N(C)CC(=O)O)cccc2c1C(F)(F)F [tolrestat] | – | – | prevention of the diabetic neuropathy (neuritogenesis), in words (5 YSY neuroblastoma [4]; glucose 30 mM): does not exercise any effect for preventing the diabetic neuropathy |
| vitamin K2 [Vit K2] | 0.88 n mol/µg of protein | 8.99 n mol/µg of protein | Percentage of cells with neurits after retinoic acid addition (5 YSY neuroblastoma [4]; 3 days in retinoic acid): 45%; Percentage of cells with neurits after retinoic acid addition (5 YSY neuroblastoma [4]; 7 days in retinoic acid): 65%; Percentage of cells with neurits after retinoic acid addition (5 YSY neuroblastoma [4]; 12 days in retinoic acid): 98% |

From EP0638309A1, “Substances inhibiting proteic adp ribosilation suitable to prevent the diabetes mellitus complications” (ISTITUTO BIOCHIMICO ITALIANO GIOVANNI LORENZINI S.p.A., priority 1993, dated 1995)
